Results as given in US6727264B1 (Synaptic Pharmaceutical Corporation, priority 2001, dated 2004).

molecular target: rat MCH-1 (Rattus norvegicus, UniProt P97639); assay: Radioligand binding assay at cloned rat MCH1 receptor ([3H] Compound A); set-up: host or cells: Peak rapid 293 (Peakr293) cells, transient calcium phosphate transfection, membranes; conditions: not given
Sequence (P97639 whole entry): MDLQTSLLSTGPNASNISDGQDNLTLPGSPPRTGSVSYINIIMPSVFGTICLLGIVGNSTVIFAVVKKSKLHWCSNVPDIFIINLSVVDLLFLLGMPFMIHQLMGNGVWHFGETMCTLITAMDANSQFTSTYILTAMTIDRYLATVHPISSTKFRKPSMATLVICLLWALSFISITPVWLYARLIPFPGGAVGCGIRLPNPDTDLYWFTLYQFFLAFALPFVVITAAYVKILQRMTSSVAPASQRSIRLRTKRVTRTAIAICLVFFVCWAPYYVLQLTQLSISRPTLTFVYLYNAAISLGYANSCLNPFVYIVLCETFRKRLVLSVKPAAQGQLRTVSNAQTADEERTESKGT

In the case of CC(C)C(=O)Nc1cccc(C2CCN(Cc3cccc4[nH]ccc34)CC2)c1 [Example 830], the Ki is reported as 469 nM.

same assay, conditions: cloned rat MCH1 receptor; 0.08 nM [3H] Compound A; Peakr293 cell membranes; read-out: Ki (nM) rMCH1

CC(C)C(=O)Nc1cccc(C2CCN(CCCc3c(-c4cccc([N+](=O)[O-])c4)[nH]c4ccc(OC(F)(F)F)cc34)CC2)c1 [Example 768] and COc1ccc2[nH]c(-c3cccc([N+](=O)[O-])c3)c(CCCN3CCC(c4cccc(NC(=O)C(C)C)c4)CC3)c2c1 [Example 770] are within 1.5-fold of each other in Ki: 17.5 nM for the first, 12.7 nM for the second.

Cc1ccc2[nH]c(-c3cccc([N+](=O)[O-])c3)c(CCCN3CCC(c4cccc(NC(=O)C(C)C)c4)CC3)c2c1 [Example 769] and Cc1ccc2[nH]c(-c3ccc([N+](=O)[O-])cc3)c(CCCN3CCC(c4cccc(NC(=O)C(C)C)c4)CC3)c2c1 [Example 776] are within 1.5-fold of each other in Ki: 12.4 nM for the first, 18.2 nM for the second.

First: CC(C)C(=O)Nc1cccc(C2CCN(CCCc3c(-c4cccc([N+](=O)[O-])c4)n(-c4ccccc4)c4ccccc34)CC2)c1 [Example 771]
Second: CC(C)C(=O)Nc1cccc(C2CCN(CCCc3c(-c4ccc([N+](=O)[O-])cc4)n(-c4ccccc4)c4ccccc34)CC2)c1 [Example 789]
The Ki of the first is 5.2-fold higher: 189 nM for the first, 36.4 nM for the second.

CC(C)C(=O)Nc1cccc(C2CCN(CCCc3c(-c4cccc([N+](=O)[O-])c4)n(C)c4ccccc34)CC2)c1 [Example 772] and CC(C)C(=O)Nc1cccc(C2CCN(CCCc3c(-c4ccc([N+](=O)[O-])cc4)n(C)c4ccccc34)CC2)c1 [Example 788] are within 1.5-fold of each other in Ki: 14.9 nM for the first, 11.1 nM for the second.

First: Cc1cccc2c(CCCN3CCC(c4cccc(NC(=O)C(C)C)c4)CC3)c(-c3cccc([N+](=O)[O-])c3)[nH]c12 [Example 773]
Second: Cc1cccc2c(CCCN3CCC(c4cccc(NC(=O)C(C)C)c4)CC3)c(-c3ccc([N+](=O)[O-])cc3)[nH]c12 [Example 779]
The Ki of the first is 3.1-fold higher: 23.8 nM for the first, 7.6 nM for the second. The second binds more tightly here.

COc1ccc2[nH]c(-c3ccc([N+](=O)[O-])cc3)c(CCCN3CCC(c4cccc(NC(=O)C(C)C)c4)CC3)c2c1 [Example 774] and CC(C)C(=O)Nc1cccc(C2CCN(CCCc3c(-c4ccc([N+](=O)[O-])cc4)[nH]c4c3ccc3ccccc34)CC2)c1 [Example 777] are within 1.5-fold of each other in Ki: 7.9 nM for the first, 8.5 nM for the second.

CC(C)C(=O)Nc1cccc(C2CCN(CCCc3c(-c4ccccc4Br)[nH]c4ccccc34)CC2)c1 [Example 775] and CC(C)C(=O)Nc1cccc(C2CCN(CCCc3c(-c4ccccc4I)[nH]c4ccccc34)CC2)c1 [Example 790] are within 1.5-fold of each other in Ki: 4.9 nM for the first, 4.4 nM for the second.

Compared with CC(C)C(=O)Nc1cccc(C2CCN(CCCC/C(=N\Nc3ccccc3)c3ccc([N+](=O)[O-])cc3)CC2)c1 [Example 778], CC(C)C(=O)Nc1cccc(C2CCN(CCCC/C(=N\Nc3ccc(OC(F)(F)F)cc3)c3ccc([N+](=O)[O-])cc3)CC2)c1 [Example 780] is 2.4-fold higher in Ki: 26.5 nM for the first, 64.3 nM for the second. The first binds more tightly here.

First: CC(C)C(=O)Nc1cccc(C2CCN(CCCc3c(-c4ccccc4Br)[nH]c4c3ccc3ccccc34)CC2)c1 [Example 781]
Second: CC(C)C(=O)Nc1cccc(C2CCN(CCCc3c(-c4ccccc4I)[nH]c4c3ccc3ccccc34)CC2)c1 [Example 791]
The Ki of the first is 1.7-fold lower: 7.6 nM for the first, 12.7 nM for the second.

CC(C)C(=O)Nc1cccc(C2CCN(CCCc3c(-c4ccccc4Br)[nH]c4ccc(OC(F)(F)F)cc34)CC2)c1 [Example 782] and CC(C)C(=O)Nc1cccc(C2CCN(CCCc3c(-c4ccccc4I)[nH]c4ccc(OC(F)(F)F)cc34)CC2)c1 [Example 786] are within 1.5-fold of each other in Ki: 18.1 nM for the first, 19.7 nM for the second.

Cc1cccc2c(CCCN3CCC(c4cccc(NC(=O)C(C)C)c4)CC3)c(-c3ccccc3Br)[nH]c12 [Example 783] and Cc1cccc2c(CCCN3CCC(c4cccc(NC(=O)C(C)C)c4)CC3)c(-c3ccccc3I)[nH]c12 [Example 793] are within 1.5-fold of each other in Ki: 18 nM for the first, 16.3 nM for the second.

CC(C)C(=O)Nc1cccc(C2CCN(CCCc3c(-c4ccccc4Br)n(-c4ccccc4)c4ccccc34)CC2)c1 [Example 784] and CC(C)C(=O)Nc1cccc(C2CCN(CCCc3c(-c4ccccc4I)n(-c4ccccc4)c4ccccc34)CC2)c1 [Example 792] are within 1.5-fold of each other in Ki: 121 nM for the first, 122 nM for the second.

Cc1ccc2[nH]c(-c3ccccc3Br)c(CCCN3CCC(c4cccc(NC(=O)C(C)C)c4)CC3)c2c1 [Example 785] and Cc1ccc2[nH]c(-c3ccccc3I)c(CCCN3CCC(c4cccc(NC(=O)C(C)C)c4)CC3)c2c1 [Example 787] are within 1.5-fold of each other in Ki: 22.7 nM for the first, 21.6 nM for the second.

Compared with CC(C)C(=O)Nc1cccc(C2CCN(CCCc3c(-c4ccccc4Br)n(C)c4ccccc34)CC2)c1 [Example 794], CC(C)C(=O)Nc1cccc(C2CCN(CCc3cccc4ccccc34)CC2)c1 [Example 801] is 63-fold higher in Ki: 4.9 nM for the first, 311 nM for the second. The first binds more tightly here.

CC1=C(C(=O)NCCCN2CCC(c3cccc(NC(=O)C(C)C)c3)CC2)C(c2ccc(F)c(F)c2)CC(=O)N1 (stereo not shown) [Example 795] and CC1=C(C(=O)NCCCN2CCC(c3cccc(NC(=O)C(C)C)c3)CC2)C(c2ccc(F)cc2F)CC(=O)N1 (stereo not shown) [Example 796] are within 1.5-fold of each other in Ki: 51.1 nM for the first, 43 nM for the second.

First: COc1ccc(CCCCN2CCC(c3cccc(NC(=O)C(C)C)c3)CC2)cc1 [Example 797]
Second: CC(C)C(=O)Nc1cccc(C2CCN(CCCCc3ccc([N+](=O)[O-])cc3)CC2)c1 [Example 800]
The Ki of the first is 4.3-fold higher: 42.4 nM for the first, 9.9 nM for the second. The second binds more tightly here.

CCC(=O)Nc1ccc(C2CCN(CCCc3c(-c4ccccc4)n(-c4ccccc4)c4ccccc34)CC2)cc1 [Example 798] and CCC(=O)Nc1ccc(C2CCN(CCC(c3ccccc3)c3ccccc3)CC2)cc1 [Example 799] are within 1.5-fold of each other in Ki: 475 nM for the first, 371 nM for the second.

Going from CC(C)C(=O)Nc1cccc(C2CCN(CCC(c3ccccc3)c3ccccc3)CC2)c1 [Example 802] to CC(C)C(=O)Nc1cccc(C2CCN(CC[C@H](Oc3ccc(Cl)c(Cl)c3)c3ccccc3)CC2)c1 [Example 808], the Ki falls from 36.7 nM to 10.8 nM (3.4-fold).

Compared with COc1ccc(CCCN2CCC(c3cccc(NC(=O)C(C)C)c3)CC2)cc1OC [Example 803], CC(C)C(=O)Nc1cccc(C2CCN(CCCc3ccccc3)CC2)c1 [Example 804] is 3.4-fold lower in Ki: 299 nM for the first, 89.2 nM for the second. The second binds more tightly here.

Going from CC(C)C(=O)Nc1cccc(C2CCN(CCCc3ccncc3)CC2)c1 [Example 805] to CC(C)C(=O)Nc1cccc(C2CCN(CCCCC(O)c3ccc(F)cc3)CC2)c1 (stereo not shown) [Example 811], the Ki falls from 904 nM to 191 nM (4.7-fold). The second binds more tightly here.

Going from CC(C)C(=O)Nc1cccc(C2CCN(Cc3ccc(C(C)(C)C)cc3)CC2)c1 [Example 806] to CC(C)C(=O)Nc1cccc(C2CCN(Cc3ccc(C(=O)c4ccccc4)cc3)CC2)c1 [Example 807], the Ki falls from 14.1 nM to 2.7 nM (5.2-fold). The second binds more tightly here.

Compared with CC(C)C(=O)Nc1cccc(C2CCN(CCCCCC(O)c3ccccc3F)CC2)c1 (stereo not shown) [Example 809], CC(C)C(=O)Nc1cccc(C2CCN(CCCCCCC(O)c3ccccc3F)CC2)c1 (stereo not shown) [Example 812] is 4.3-fold higher in Ki: 56.8 nM for the first, 245 nM for the second. The first binds more tightly here.

Going from CC(C)C(=O)Nc1cccc(C2CCN(CCCCC(O)c3ccc(C(F)(F)F)cc3)CC2)c1 (stereo not shown) [Example 810] to CC(C)C(=O)Nc1cccc(C2CCN(CCCCC(O)c3ccc(Cl)cc3)CC2)c1 (stereo not shown) [Example 819], the Ki falls from 191 nM to 80.2 nM (2.4-fold).

First: CC(C)C(=O)Nc1cccc(C2CCN(CCCCCC(O)c3cccc(F)c3)CC2)c1 (stereo not shown) [Example 813]
Second: CC(C)C(=O)Nc1cccc(C2CCN(CCCCC(O)c3cccc(F)c3)CC2)c1 (stereo not shown) [Example 815]
The Ki of the first is 2.2-fold lower: 57.3 nM for the first, 127 nM for the second.

Going from CC(C)C(=O)Nc1cccc(C2CCN(CCCCC(O)c3ccccc3F)CC2)c1 (stereo not shown) [Example 814] to CC(C)C(=O)Nc1cccc(C2CCN(CCCCC(O)c3cccc(Cl)c3)CC2)c1 (stereo not shown) [Example 816], the Ki falls from 159 nM to 89.6 nM (1.8-fold). The second binds more tightly here.

CC(C)C(=O)Nc1cccc(C2CCN(CCCCCC(O)c3ccc(F)cc3)CC2)c1 (stereo not shown) [Example 817] and CC(C)C(=O)Nc1cccc(C2CCN(CCCCCC(O)c3ccc(Cl)cc3)CC2)c1 (stereo not shown) [Example 818] are within 1.5-fold of each other in Ki: 34.9 nM for the first, 38.2 nM for the second.

Compared with CCCC(=O)Nc1ccc(C2CCN(Cc3ccc4c(c3)c3ccccc3n4CC)CC2)cc1 [Example 820], CCC(=O)Nc1cccc(C2CCN(Cc3ccc4c(c3)c3ccccc3n4CC)CC2)c1 [Example 821] is 9-fold lower in Ki: 109 nM for the first, 12.1 nM for the second. The second binds more tightly here.

Compared with Cc1cc(CN2CCC(c3cccc(NC(=O)C(C)C)c3)CC2)cc2c3ccccc3n(C)c12 [Example 822], CC(C)C(=O)Nc1cccc(C2CCN(Cc3cc4ccccc4n3C)CC2)c1 [Example 829] is 230-fold higher in Ki: 1 nM for the first, 228 nM for the second. The first binds more tightly here.

Going from CCn1c2ccccc2c2cc(CN3CCC(c4cccc(NC(=O)C5CC5)c4)CC3)ccc21 [Example 823] to CCn1c2ccccc2c2cc(CN3CCC(c4cccc(N5CCCC5=O)c4)CC3)ccc21 [Example 824], the Ki rises from 2.7 nM to 36.5 nM (14-fold). The first binds more tightly here.

CC(C)C(=O)Nc1ccc(C2CCN(CCCCCn3ccc4ccccc43)CC2)cc1 [Example 825] and CC(C)C(=O)Nc1ccc(C2CCN(CCCCCCn3ccc4ccccc43)CC2)cc1 [Example 831] are within 1.5-fold of each other in Ki: 601 nM for the first, 570 nM for the second.

CCCC(=O)Nc1ccc(C2CCN(CCCCCn3ccc4ccccc43)CC2)cc1 [Example 826] and CCCC(=O)Nc1ccc(C2CCN(CCCCn3ccc4ccccc43)CC2)cc1 [Example 840] are within 1.5-fold of each other in Ki: 786 nM for the first, 663 nM for the second.

Going from CCC(=O)Nc1ccc(C2CCN(CCCCCn3ccc4ccccc43)CC2)cc1 [Example 827] to CCC(=O)Nc1ccc(C2CCN(CCCCCCn3ccc4ccccc43)CC2)cc1 [Example 828], the Ki rises from 215 nM to 516 nM (2.4-fold). The first binds more tightly here.

Compared with CC(C)C(=O)Nc1cccc(C2CCN(Cc3cccc4cc[nH]c34)CC2)c1 [Example 832], CC(C)C(=O)Nc1cccc(C2CCN(Cc3cccc4c3ccn4-c3ccc(F)cc3)CC2)c1 [Example 836] is 79-fold lower in Ki: 614 nM for the first, 7.8 nM for the second. The second binds more tightly here.

Going from COc1ccc(-n2ccc3cc(CN4CCC(c5cccc(NC(=O)C(C)C)c5)CC4)ccc32)cc1 [Example 833] to COc1cccc(-n2ccc3cc(CN4CCC(c5cccc(NC(=O)C(C)C)c5)CC4)ccc32)c1 [Example 839], the Ki rises from 27.5 nM to 62.2 nM (2.3-fold).

First: COC(=O)c1ccc(-n2ccc3c(CN4CCC(c5cccc(NC(=O)C(C)C)c5)CC4)cccc32)cc1 [Example 834, METHYL 4-[4-({4-[3-(ISOBUTYRYLAMINO)PHENYL]-1-PIPERIDINYL)METHYL)-1H-INDOL-1-YL]BENZOATE]
Second: CC(C)C(=O)Nc1cccc(C2CCN(Cc3ccc4c(ccn4-c4ccc(Cl)cc4)c3)CC2)c1 [Example 838]
The Ki of the first is 3.4-fold higher: 38.3 nM for the first, 11.2 nM for the second.

Going from Cc1cccc(-n2ccc3cc(CN4CCC(c5cccc(NC(=O)C(C)C)c5)CC4)ccc32)c1 [Example 835] to CC(C)C(=O)Nc1cccc(C2CCN(CCCCn3ccc4ccccc43)CC2)c1 [Example 837], the Ki rises from 21.3 nM to 35.9 nM (1.7-fold). The first binds more tightly here.
